Earlier results, collected in patent US8877792B2, “Compositions for increasing solubility of azole drug compounds that are poorly soluble in water” (Dow Pharmaceutical Sciences, Inc., priority 2008, dated 2014).

Settings: background statement, cited from earlier work

**Q.** Which results are given for Cc1ncc([N+](=O)[O-])n1CCO [Metronidazole, metronidazole]?
**A.** aqueous solubility of metronidazole in water (room temperature): about 0.87 % w/w; limit of metronidazole concentration for physically stable solutions in water (solutions that can withstand cold temperatures encountered during shipping): about 0.7 % w/w
